Test results reported in patent US20080213377A1, “Delivery of Nanoparticles and/or Agents to Cells” (priority 2006, published 2008).
Each block holds one molecule with its values, some of them ahead of it. No end group written: not given here.

What was measured:
HeLa cells = experiment: QD internalization in HeLa cell monolayers, flow cytometry (Example 8); format: cell-based; conditions: free peptide 1 μM to 1 mM added with 50 nM F3-QDs
Text: After four hours, cells were washed with media, treated with trypsin (0.25%) and EDTA, and resuspended in 1% BSA (in PBS) for flow cytometry (BD FACSort, FL1 for EGFP signal and FL3 for QD signal). Fluorescence data on 10,000 cells were collected for each sample and the geometric mean of intensity was reported.

Glioblastoma cells = experiment: Photoactivation of endosomal escape in glioblastoma cells; format: cell-based
Description: Fluorescein labeled CAR peptide ([…]) was synthesized using an ABI Model 433A peptide synthesizer from Biopolymers Laboratory, the MIT Center for Cancer Research. The peptide was cyclized by bubbling air into an aqueous solution of the peptide at 0.1 mg/ml overnight. Complete cyclization was confirmed by mass spectrometry and HPLC analysis.
Glioblastoma cells were obtained from the laboratory of Phil Sharp (MIT). The cyclized peptide (cCAR) was incubated with cells for 2 hours at 37° C. in complete culture medium (DMEM supplemented with serum, streptomycin, penicillin and fungizone). A monolayer of the cells was then rinsed with warm media three times. Microscopy photographs were taken after overnight incubation of the cells. For activation of photosensitizer, Arc lamp light from a microscope was irradiated onto the cells for two minutes.

[1] = test system: collagenase (Clostridiopeptidase A); experiment: Protease activation of nanoparticles (TAMRA dequenching), collagenase; format: biochemical; conditions: 25 μM; collagenase 20 μg/ml
Recombinant MMP-2 = target: T1, Recombinant MMP-2 (Homo sapiens, UniProt P08253); experiment: Protease activation of nanoparticles (TAMRA dequenching), MMP-2; conditions: 25 μM; MMP-2 2.5 μg/ml
T1 sequence (P08253 110-660): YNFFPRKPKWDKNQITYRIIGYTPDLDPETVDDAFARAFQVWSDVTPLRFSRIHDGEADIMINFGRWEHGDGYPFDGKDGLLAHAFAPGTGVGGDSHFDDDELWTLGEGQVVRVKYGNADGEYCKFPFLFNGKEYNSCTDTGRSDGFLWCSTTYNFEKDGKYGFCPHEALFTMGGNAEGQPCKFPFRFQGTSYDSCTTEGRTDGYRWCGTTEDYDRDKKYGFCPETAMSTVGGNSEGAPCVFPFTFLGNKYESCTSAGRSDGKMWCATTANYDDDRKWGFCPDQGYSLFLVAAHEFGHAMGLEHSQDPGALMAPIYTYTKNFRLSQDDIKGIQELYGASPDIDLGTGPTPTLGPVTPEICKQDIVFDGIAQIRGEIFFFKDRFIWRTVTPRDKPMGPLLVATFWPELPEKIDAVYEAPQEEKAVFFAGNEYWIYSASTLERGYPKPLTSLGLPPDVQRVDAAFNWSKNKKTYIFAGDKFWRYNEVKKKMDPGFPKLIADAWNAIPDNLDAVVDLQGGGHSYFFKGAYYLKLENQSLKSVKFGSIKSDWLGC

[2] = test system: Peptide-PEG (MMP-2 cleavable L-AA substrate coupled to 10 kDa PEG) immobilized on dextran-coated iron oxide nanoparticles
[3] = test system: Free MMP-2 cleavable peptide substrate NH2-G-K(TAMRA)-G-P-L-G-V-R-G-C-CONH2
[4] = target: Nucleolin on the surface of HeLa cells (UniProt P19338); experiment: cell-based or functional assay
Nucleolin on the surface of HeLa cells, sequence (P19338 2-710 limits assumed): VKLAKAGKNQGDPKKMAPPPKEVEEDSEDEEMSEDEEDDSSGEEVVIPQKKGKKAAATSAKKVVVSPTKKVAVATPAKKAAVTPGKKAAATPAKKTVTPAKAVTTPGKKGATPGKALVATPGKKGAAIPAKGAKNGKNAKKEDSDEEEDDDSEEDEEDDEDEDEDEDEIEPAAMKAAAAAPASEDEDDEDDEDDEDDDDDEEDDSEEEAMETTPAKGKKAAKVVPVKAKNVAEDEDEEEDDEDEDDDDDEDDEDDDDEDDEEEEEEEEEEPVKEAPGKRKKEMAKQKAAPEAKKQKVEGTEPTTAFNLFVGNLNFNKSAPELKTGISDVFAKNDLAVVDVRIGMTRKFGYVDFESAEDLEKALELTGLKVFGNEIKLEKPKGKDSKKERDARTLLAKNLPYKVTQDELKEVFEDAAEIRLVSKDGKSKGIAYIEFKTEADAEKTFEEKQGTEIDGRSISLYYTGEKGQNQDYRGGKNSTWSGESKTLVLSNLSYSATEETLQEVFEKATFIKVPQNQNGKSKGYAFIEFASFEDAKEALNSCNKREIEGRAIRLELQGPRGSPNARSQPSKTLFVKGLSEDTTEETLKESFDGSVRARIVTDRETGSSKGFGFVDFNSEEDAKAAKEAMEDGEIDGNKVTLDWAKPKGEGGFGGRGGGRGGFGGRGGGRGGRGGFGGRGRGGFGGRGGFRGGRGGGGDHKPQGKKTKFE

Molecule: Lys-Ala-Arg-Glu-Cys (KAREC; printed: Lys-Ala-Arg-Glu-Cys) [KAREC peptide]
inhibition of F3-QD uptake by free peptide (HeLa cells): minimal

Molecule: cyclic CAR peptide: Fluorescein labeled, cyclized CAR peptide (CARSKNKDC), binds heparan sulfate proteoglycans (also: fluorescein label, position not given here, cyclized, bond type not given here)
internalization into cells (Glioblastoma cells; 2 hours at 37° C., without light irradiation): internalized
endosomal escape upon light irradiation (Glioblastoma cells; Arc lamp light irradiation): distributed evenly inside cells

Molecule: CNC(=O)[C@H](Cc1c[nH]c2ccccc12)NC(=O)[C@@H](CC(=O)NO)CC(C)C [Galardin]
inhibition of nanoparticle activation (peptide-PEG cleavage) [1]: inhibits activation
inhibition of nanoparticle activation (peptide-PEG cleavage) (Recombinant MMP-2): inhibits activation

Molecule: Recombinant MMP-2
Kcat/Km (cleavage of the substrate by MMP-2 over time, TAMRA dequenching) [2]: 8.42 and 26.7 µM^-1 hr^-1 respectively
fold reduction of MMP-2 Kcat/Km against the free peptide [2]: reduces its associated MMP-2 Kcat/Km within a practical range, 3.2 fold
Kcat/Km (cleavage of the substrate by MMP-2 over time, fluorescamine assay) [3]: 8.42 and 26.7 µM^-1 hr^-1 respectively

QD uptake by HeLa cells (flow cytometry) (orders of magnitude) [4]: 2
Molecule: F3-QD (F3 peptide C[Ahx]… conjugated to PEG-amino quantum dots)
